The values that follow come from PMC11308155 (Microbial Cell Factories, 2024).

Broadly, the MIC90 is an inhibitory concentration at the 90% level, which refers to growth in some studies and to a panel of isolates in others. Read a high MIC90 as lower susceptibility. What is called IC50 is the point on the concentration scale where inhibition reaches its midpoint. Usually Ki stands for the dissociation constant of the complex between target and ligand, obtained from inhibition or displacement. The low end stands for higher affinity, the high end for lower affinity.

Experiment [1] relates to E. coli clinical isolates. The experiment can be described thus: MIC by broth microdilution against clinical isolates of E. coli. The class given is cell-based. In general terms: Dilution methods test growth across graded concentrations, often in twofold steps.
In experiment [2] the test system is CTX-M-15-producer isogenic strain. The experiment can be described thus: Disc diffusion test, CTX-M-15-producer. The class given is cell-based, E. coli. To be noted: cefotaxime disc 30 µg. (In general: In agar diffusion tests the substance spreads into inoculated agar from a disc or well.)
In experiment [3] the test system is isogenic strain producing CTX-M-15. As to the kind of experiment: Time-kill kinetic assay, CTX-M-15-producing isogenic strain. To be noted: cefotaxime 2 µg/mL + inhibitor 4 µg/mL; CTX-M-15 strain. The class given is cell-based, E. coli.
For experiment [4], the system named is isogenic strain producing KPC-2. The experiment can be described thus: Time-kill kinetic assay, KPC-2-producing isogenic strain. The experiment is classed as cell-based, E. coli. To be noted: imipenem 4 µg/mL + inhibitor 4 µg/mL, KPC-2 strain.
Experiment [5] has as its system K. pneumoniae clinical isolates. As to the kind of experiment: MIC by broth microdilution against clinical isolates of K. pneumoniae. The experiment is classed as cell-based. To be noted: for MIC range: K. pneumoniae clinical isolates, 25 isolates.
The subject of experiment [6] is KPC-2-producer isogenic strain. As to the kind of experiment: Disc diffusion test, KPC-2-producer. The experiment is classed as cell-based, E. coli. To be noted: imipenem disc 10 µg.
Experiment [7] deals with CTX-M-15 (Escherichia coli, UniProt Q9EXV5). As to the kind of experiment: Purified β-lactamase inhibition assay with nitrocefin, CTX-M-15. The class given is biochemical, E. coli.
Sequence of CTX-M-15 (Escherichia coli, UniProt Q9EXV5) (Q9EXV5 29-291): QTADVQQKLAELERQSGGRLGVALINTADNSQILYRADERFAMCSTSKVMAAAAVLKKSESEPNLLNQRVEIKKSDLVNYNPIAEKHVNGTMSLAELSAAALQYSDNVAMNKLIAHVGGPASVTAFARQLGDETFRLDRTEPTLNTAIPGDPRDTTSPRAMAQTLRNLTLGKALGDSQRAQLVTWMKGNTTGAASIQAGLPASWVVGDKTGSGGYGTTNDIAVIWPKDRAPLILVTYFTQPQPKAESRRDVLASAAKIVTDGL
For experiment [8], the target named is KPC-2 (Klebsiella pneumoniae, UniProt Q9F663). As to the kind of experiment: Purified β-lactamase inhibition assay with nitrocefin, KPC-2. The experiment is classed as biochemical, K. pneumoniae.
Sequence of KPC-2 (Q9F663 25-293, looked up): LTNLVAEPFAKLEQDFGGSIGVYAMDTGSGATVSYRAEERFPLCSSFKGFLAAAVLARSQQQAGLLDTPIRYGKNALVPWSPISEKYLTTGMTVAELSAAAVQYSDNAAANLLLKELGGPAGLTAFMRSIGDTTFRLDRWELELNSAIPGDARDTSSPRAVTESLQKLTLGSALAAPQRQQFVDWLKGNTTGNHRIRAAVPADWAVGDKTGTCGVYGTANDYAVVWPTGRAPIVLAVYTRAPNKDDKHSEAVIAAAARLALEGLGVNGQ
Experiment [9] deals with CTX-M-15. To be noted: ref 17 (Faheem et al.); cited from earlier work.

Structures are written as SMILES. ≈ marks a conversion by molar mass, not a printed value.

`CC1=C(C(=O)O)N2C(=O)[C@@H](NC(=O)[C@H](N)c3ccccc3)[C@H]2SC1` [Cefalexin, cefalexin] gave an MIC90 in experiment [1] (Escherichia coli) of 512 µg/mL (≈ 1470 µM).
For `CO/N=C(\C(=O)N[C@@H]1C(=O)N2C(C(=O)O)=C(COC(C)=O)CS[C@H]12)c1csc(N)n1` [Cefotaxime, cefotaxime], the “disc diffusion result, antibiotic disc only” value in experiment [2] is on record as “resistance”. Besides, in experiment [1] (E. coli clinical isolates, 25 isolates), the MIC range fell in the range of 64 to 128 µg/mL.
Regarding `O=C(O)[C@H]1/C(=C/CO)O[C@@H]2CC(=O)N21` [Clavulanic acid, clavulanic acid], the “incubation time after which viable count was below the limit of detection” value in experiment [3] was determined as 10 h. In addition, the “reduction in CFU” value in experiment [4] (after 6 h of incubation) was 2 log10.
`C[C@@H](O)[C@H]1C(=O)N2C(C(=O)O)=C(S[C@@H]3CN[C@H](C(=O)Nc4cccc(C(=O)O)c4)C3)[C@H](C)[C@H]12` [Ertapenem, ertapenem]: the MIC range in [5] and in [5] (listed as ertapenem) was 8 to 256 µg/mL throughout. This compound also gave an MIC90 in [5] (Klebsiella pneumoniae) of 32 µg/mL (≈ 67.3 µM).
With `C[C@@H](O)[C@H]1C(=O)N2C(C(=O)O)=C(SCCN=CN)C[C@H]12` [Imipenem, imipenem], in experiment [6], the “disc diffusion result, antibiotic disc only” value is “resistance”. This compound also yielded an MIC range in experiment [5] of 64 to 512 µg/mL.
Regarding `C[C@]1(Cn2ccnn2)[C@H](C(=O)O)N2C(=O)C[C@H]2S1(=O)=O` [Tazobactam, tazobactam], the figures for the “incubation time after which viable count was below the limit of detection” value in experiment [3] and in [4] were 6 h and 8 h, respectively. The IC50 in experiment [7] was 58.3 µM; in [8], 69.6 µM. In addition, the inhibition constant Ki was around 31 µM in experiment [7] (Ki, CTX-M-15, nitrocefin substrate) and 29.2 µM in [8]. The “decrease of the MICs of some cephalosporin antibiotics” value in experiment [9] is given as 2–16 folds.
